# Reference: patent publication US20130116284A1, “LIPOIC ACID AND NITROXIDE DERIVATIVES AND USES THEREOF” (RADIKAL THERAPEUTICS INC., priority 2010, published 2013)
# “And” between values parts separate entries of the source, which are not always exact repeats. Equal values may be shown once.
# Assays:
# [1] = system: PARP; conditions: read-out: PARP inhibitor IC50; stated for the monofunctional PARP inhibitor, no method given; cited from earlier work
# [2] = system: CD mice; assay: rodent model of inflammation induced by zymosan (lung MPO, lung histology); type: in vivo; conditions: 60 mg/kg IP at 1 hour after zymosan 500 mg/kg IP; lung at 18 hours; vs. vehicle control
# Protocol: In this study, we tested the potency of compound 1 (R-503) in treatment of an inflammation induced by zymosan, a glucan with repeating glucose units connected by β-1,3-glycosidic linkages.
# Male CD mice (20-22 g) were randomly allocated into the following groups (n=10 per experimental arm): (i) zymosan+vehicle group, wherein zymosan (500 mg/kg) was administered via an intraperitoneal (IP) route; (ii) zymosan+compound 1 group, which was identical to the zymosan+vehicle group except for the administration of compound 1 (60 mg/kg IP) at 1 hour after zymosan challenge; and (iii) Sham+vehicle group, which was identical to the zymosan+vehicle group but vehicle was administered in place of zymosan. 18 hours after zymosan admininstration, lung samples were scored for histologic injury by a pathologist blinded to group assignment and neutrophil concentration was determined by measurement of myeloperoxidase (MPO) activity. The following morphological criteria were used for scoring: 0, normal lung; grade 1, minimal edema or infiltration of alveolar or bronchiolar walls; grade 3, moderate edema and inflammatory cell infiltration without obvious damage to lung architecture; grade 4, severe inflammatory cell infiltration with obvious damage to lung architecture. […]
# [3] = system: Balb/c mice; assay: murine model of chlorine inhalational lung injury (lung MPO, lung histology); type: in vivo; conditions: 30 mg/kg/dose IP q12h from 15 minutes after 400 ppm Cl2 for 30 minutes; lung at 24 hours; relative to placebo (D5W)
# Protocol: In this study, we potency of compound 1 (R-503) in treatment of chlorine inhalational lung injury was tested.
# Male Balb/c mice were exposed in a cylindrical glass chamber to 400 ppm Cl2 in air for 30 minutes. 15 minutes after the conclusion of Cl2 exposure, mice were initiated on a q12h regimen of compound 1 (30 mg/kg/dose IP in 0.5 ml dextrose 5% in water, D5W). At 24 hours, mice were euthanized and lung tissue was taken for examination of polymorphonuclear neutrophil (PMN) infiltration (as reflected by MPO) and lung histology (H&E staining). The following morphological criteria were used for scoring: 0, normal lung; grade 1, minimal edema or infiltration of alveolar or bronchiolar walls; grade 3, moderate edema and inflammatory cell infiltration without obvious damage to lung architecture; grade 4, severe inflammatory cell infiltration with obvious damage to lung architecture. As shown in FIGS. 4A-4B, compound 1 therapy reduced the elevation in MPO and histological lung damage by 82% and 73%, respectively, relative to placebo (D5W).
# [4] = biological target: PARP-1 (Homo sapiens, UniProt P09874); assay: in vitro PARP inhibition potency assay, Universal calorimetric PARP-1 Assay Kit (Trevigen); type: biochemical; conditions: 10 point curve, 0.16 nM to 250 nM
# PARP-1, sequence (P09874 whole entry): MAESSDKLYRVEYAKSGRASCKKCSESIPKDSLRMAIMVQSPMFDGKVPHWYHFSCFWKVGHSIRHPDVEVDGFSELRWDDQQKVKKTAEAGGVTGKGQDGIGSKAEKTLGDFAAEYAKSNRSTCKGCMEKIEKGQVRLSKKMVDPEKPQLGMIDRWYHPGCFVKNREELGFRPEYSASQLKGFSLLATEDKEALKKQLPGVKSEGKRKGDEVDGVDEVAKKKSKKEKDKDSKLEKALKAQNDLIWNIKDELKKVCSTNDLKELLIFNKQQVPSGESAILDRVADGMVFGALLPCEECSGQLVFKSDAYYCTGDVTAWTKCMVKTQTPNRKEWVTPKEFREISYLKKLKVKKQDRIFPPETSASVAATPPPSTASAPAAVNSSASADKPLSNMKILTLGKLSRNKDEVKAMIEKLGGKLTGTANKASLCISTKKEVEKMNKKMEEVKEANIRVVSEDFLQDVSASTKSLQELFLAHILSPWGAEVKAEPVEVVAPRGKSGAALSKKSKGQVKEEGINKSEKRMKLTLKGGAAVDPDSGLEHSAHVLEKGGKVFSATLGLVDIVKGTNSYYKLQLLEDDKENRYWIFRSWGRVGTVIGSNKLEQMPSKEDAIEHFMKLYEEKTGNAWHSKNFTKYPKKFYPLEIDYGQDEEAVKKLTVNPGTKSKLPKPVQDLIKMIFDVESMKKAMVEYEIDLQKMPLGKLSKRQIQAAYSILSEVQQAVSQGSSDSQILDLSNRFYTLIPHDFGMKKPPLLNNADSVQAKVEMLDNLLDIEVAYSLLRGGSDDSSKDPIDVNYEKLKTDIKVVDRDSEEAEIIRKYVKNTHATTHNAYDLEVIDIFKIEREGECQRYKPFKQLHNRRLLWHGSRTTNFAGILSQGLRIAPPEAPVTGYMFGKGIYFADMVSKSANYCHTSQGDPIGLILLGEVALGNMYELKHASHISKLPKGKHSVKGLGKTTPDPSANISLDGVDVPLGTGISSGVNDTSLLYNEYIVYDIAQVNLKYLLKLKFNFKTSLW
# Protocol: In this experiment, the PARP inhibition activity of compound 1 (R-503) was evaluated in in vitro potency assay using Universal calorimetric PARP-1 Assay Kit (Trevigen, Gaithersburg, Md.).
# [5] = system: RAW cells; assay: cytoprotection of RAW cells exposed to H2O2 (viability); conditions: 0.1 μM, same model system (not shown)
smiles,measurement,setting,value
C[C@]1(c2nc3c(C(N)=O)cccc3[nH]2)CCCN1 [ABT-888],IC50,[1],< 5 nM
"NC(=O)c1cccc2[nH]c(CCCCC3CCSS3)nc12 (stereo not shown) [compound 1, 2-(4-(1,2-dithiolan-3-yl)butyl)-1H-benzo[d]imidazole-4-carboxamide]",reduction of elevation in lung MPO activity,[2],65%
same,reduction of lung histologic injury,[2],80%
same,reduction of elevation in lung MPO,[3],82%
same,reduction of histological lung damage,[3],73%
same,IC50,[4],26.2 nM and 26 nM
O=C(O)CCCC[C@@H]1CCSS1 (racemic) [lipoic acid],cytoprotective effect in RAW cells exposed to H2O2,[5],no beneficial effect
